These results are taken from patent US12157730B2, “Heteroaryl derivative, method for producing same, and pharmaceutical composition comprising same as effective component” (VORONOI INC., priority 2019, dated 2024).

For the test, the target named is T1, Ba/F3 cell EGFR Exon20 ins NPH (Homo sapiens, UniProt P00533, INS773NPH).
T1 construct: expressed in transfected cells; host or cells: Ba/F3
The test can be described thus: Ba/F3 cell proliferation suppression, EGFR Exon20 ins NPH. It counts as cell-based. Particulars: GI50 class; Ba/F3 cell line with NPH inserted at Exon20 of EGFR; 72 hours. In short, it runs like this:
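Cells were seeded 24 h before dosing and then treated for 72 hours with compound at final concentrations of 0.3 nM to 50 um. Live cells were measured by CellTiter-Glo luminescence, and GI50 values were derived from growth ratio relative to control across three repeats.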
As for `C=CC(=O)Nc1cc(Nc2cc(N3OCC[C@@H]3c3cc(F)cc(F)c3)ncn2)c(OC)cc1N1CCC(N2CCN(C(C)C)CC2)CC1` [Example 265, N-(5-((6-((R)-3-(3,5-difluorophenyl)isoxazolidine-2-yl)pyrimidine-4-yl)amino)-2-(4-(4-isopropylpiperazine-1-yl)piperidine-1-yl)-4-methoxyphenyl) acrylamide], the “Ba/F3 (NPH) Activity” value was “A (GI50 < 50 nM)”.
For `C=CC(=O)Nc1cc(Nc2cc(N3OCC[C@@H]3c3cc(F)ccc3F)ncn2)c(OC)cc1N1CCC(N2C[C@@H](C)N(CC)[C@@H](C)C2)CC1` [compound 841, N-(5-((6-((R)-3-(2,5-difluorophenyl)isoxazolidine-2-yl)pyrimidine-4-yl)amino)-2-(4-((3S,5R)-4-ethyl-3,5-dimethylpiperazine-1-yl)piperidine-1-yl)-4-methoxyphenyl) acrylamide], the “Ba/F3 (NPH) Activity” value is listed as “A (GI50 < 50 nM)”.
Take `C=CC(=O)Nc1cc(Nc2cc(N3OCC[C@@H]3c3cc(F)ccc3F)ncn2)c(OC)cc1N1CCN(C)CC1` [compound 818, N-(5-((6-((R)-3-(2,5-difluorophenyl)isoxazolidine-2-yl)pyrimidine-4-yl)amino)-4-methoxy-2-(4-methylpiperazine-1-yl)phenyl)acrylamide]: the “Ba/F3 (NPH) Activity” value is given as “A (GI50 < 50 nM)”.
The result for `C=CC(=O)Nc1cc(Nc2cc(N3OCC[C@@H]3c3cccc(F)c3)ncn2)c(OC)cc1N(C)CCOC` [compound 838, N-(5-((6-((R)-3-(3-fluorophenyl)isoxazolidine-2-yl)pyrimidine-4-yl)amino)-4-methoxy-2-((2-methoxyethyl)(methyl)amino)phenyl) acrylamide] reads “A (GI50 < 50 nM)”; that for `C=CC(=O)Nc1cc(Nc2cc(N3OCC[C@@H]3c3cc(F)ccc3F)ncn2)c(OC)cc1N1CCC(N2CCN(C3CC3)CC2)CC1` [Example 61, N-(2-(4-(4-cyclopropylpiperazine-1-yl)piperidine-1-yl)-5-((6-((R)-3-(2,5-difluorophenyl)isoxazolidine-2-yl)pyrimidine-4-yl)amino)-4-methoxyphenyl) acrylamide;], “A (GI50 < 50 nM)”.
The entry for `C=C(F)C(=O)Nc1cc(Nc2cc(N3OCC[C@@H]3c3cc(F)cc(F)c3)ncn2)c(OC)cc1N1CCC(N2CCN(C3CC3)CC2)CC1` [Example 120, N-(2-(4-(4-cyclopropylpiperazine-1-yl)piperidine-1-yl)-5-((6-((R)-3-(3,5-difluorophenyl)isoxazolidine-2-yl)pyrimidine-4-yl)amino)-4-methoxyphenyl)-2-fluoroacrylamide] is “C (500 nM ≤ GI50 < 5000 nM)”; for `C=CC(=O)Nc1cc(Nc2cc(N3OCC[C@@H]3c3cc(F)cc(F)c3)ncn2)c(OC)cc1N1CCC(N2CC[C@@H](CN(C)C)C2)CC1` [compound 626, N-(5-((6-((R)-3-(3,5-difluorophenyl)isoxazolidine-2-yl)pyrimidine-4-yl)amino)-2-(4-((S)-3-((dimethylamino)methyl)pyrolidine-1-yl)piperidine-1-yl)-4-methoxyphenyl) acrylamide] it is “A (GI50 < 50 nM)”; for `C=CC(=O)Nc1cc(Nc2cc(N3OCC[C@@H]3c3cccc(C)c3F)ncn2)c(OC)cc1N1CCC(N2C[C@H]3C[C@@H]2CO3)CC1` [compound 320, N-(2-(4-((1R,4R)-2-oxa-5-azabicyclo[2.2.1]heptane-5-yl)piperidine-1-yl)-5-((6-((R)-3-(2-fluoro-3-methylphenyl)isoxazolidine-2-yl)pyrimidine-4-yl)amino)-4-methoxyphenyl) acrylamide] it is “A (GI50 < 50 nM)”.
The entry for `C=CC(=O)Nc1cc(Nc2cc(N3OCC[C@@H]3c3ccc(Cl)c(Cl)c3)ncn2)c(OC)cc1N1CCC(N2CCN(C3CC3)CC2)CC1` [compound 932, N-(2-(4-(4-cyclopropylpiperazine-1-yl)piperidine-1-yl)-5-((6-((R)-3-(3,4-dichlorophenyl)isoxazolidine-2-yl)pyrimidine-4-yl)amino)-4-methoxyphenyl) acrylamide] is “B (50 nM ≤ GI50 < 500 nM)”.
For `C=CC(=O)Nc1cc(Nc2cc(N3OCC[C@@H]3c3cccc(C(F)(F)F)c3)ncn2)c(OC)cc1N1CCC(N2CCN(C3CC3)[C@@H](C)C2)CC1` [compound 941, N-(2-(4-((S)-4-cyclopropyl-3-methylpiperazine-1-yl)piperidine-1-yl)-4-methoxy-5-((6-((R)-3-(3-(trifluoromethyl)phenyl)isoxazolidine-2-yl)pyrimidine-4-yl)amino)phenyl) acrylamide], the “Ba/F3 (NPH) Activity” value is “A (GI50 < 50 nM)”.
The entry for `C=CC(=O)Nc1cc(Nc2cc(N3OCC[C@@H]3c3cccc(F)c3)ncn2)c(OC)cc1N1CC[C@@H](N(C)C)C1` [Example 247, N-(2-((R)-3-(dimethylamino)pyrolidine-1-yl)-5-((6-((R)-3-(3-fluorophenyl)isoxazolidine-2-yl)pyrimidine-4-yl)amino)-4-methoxyphenyl) acrylamide] is “A (GI50 < 50 nM)”; for `C=CC(=O)Nc1cc(Nc2cc(N3OCC[C@@H]3c3cccc(F)c3Cl)ncn2)c(OC)cc1N1CCC(N2CCOCC2)CC1` [compound 598, N-(5-((6-((R)-3-(2-chloro-3-fluorophenyl)isoxazolidine-2-yl)pyrimidine-4-yl)amino)-4-methoxy-2-(4-morpholinopiperidine-1-yl)phenyl)acrylamide] it is “A (GI50 < 50 nM)”.
`C=CC(=O)Nc1cc(Nc2cc(N3OCC[C@@H]3c3cc(F)cc(Cl)c3)ncn2)c(OC)cc1N1CCC(O)CC1` [compound 591, N-(5-((6-((R)-3-(3-chloro-5-fluorophenyl)isoxazolidine-2-yl)pyrimidine-4-yl)amino)-2-(4-hydroxypiperidine-1-yl)-4-methoxyphenyl) acrylamide]: the “Ba/F3 (NPH) Activity” value is “A (GI50 < 50 nM)”.
The result for `C=CC(=O)Nc1cc(Nc2cc(N3OCC[C@@H]3c3ccc(C)nc3)ncn2)c(OC)cc1N1CC[C@H](N(C)C)C1` [Example 222, N-(2-((S)-3-(dimethylamino)pyrolidine-1-yl)-4-methoxy-5-((6-((R)-3-(6-methylpyridine-3-yl)isoxazolidine-2-yl)pyrimidine-4-yl)amino)phenyl)acrylamide] reads “B (50 nM ≤ GI50 < 500 nM)”; that for `C=CC(=O)Nc1cc(Nc2cc(N3OCC[C@@H]3c3cccc(Cl)c3F)ncn2)c(OC)cc1N1CCC(N2C[C@H](C)N(C3CC3)C[C@@H]2C)CC1` [Example 128, N-(5-((6-((R)-3-(3-chloro-2-fluorophenyl)isoxazolidine-2-yl)pyrimidine-4-yl)amino)-2-(4-((2S,5S)-4-cyclopropyl-2,5-dimethylpiperazine-1-yl)piperidine-1-yl)-4-methoxyphenyl) acrylamide], “A (GI50 < 50 nM)”; that for `C=CC(=O)Nc1cc(Nc2cc(N3OCC[C@@H]3c3ccc(F)c(Cl)c3F)ncn2)c(OC)cc1N1CCN(C)CC1` [compound 604, N-(5-((6-((R)-3-(3-chloro-2,4-difluorophenyl)isoxazolidine-2-yl)pyrimidine-4-yl)amino)-4-methoxy-2-(4-methylpiperazine-1-yl)phenyl)acrylamide], “A (GI50 < 50 nM)”.
The entry for `C=CC(=O)Nc1cc(Nc2cc(N3OCC[C@@H]3c3cc(F)cc(F)c3)ncn2)c(OC)cc1N1C[C@H]2C[C@@H]1CO2` [compound 436, N-(2-((1R,4R)-2-oxa-5-azabicyclo[2.2.1]heptane-5-yl)-5-((6-((R)-3-(3,5-difluorophenyl)isoxazolidine-2-yl)pyrimidine-4-yl)amino)-4-methoxyphenyl) acrylamide] is “B (50 nM ≤ GI50 < 500 nM)”; for `C#Cc1cccc([C@H]2CCON2c2cc(Nc3cc(NC(=O)C=C)c(N4CCC(N5CCN(C)CC5)CC4)cc3OC)ncn2)c1` [compound 649, N-(5-((6-((R)-3-(3-ethynylphenyl)isoxazolidine-2-yl)pyrimidine-4-yl)amino)-4-methoxy-2-(4-(4-methylpiperazine-1-yl)piperidine-1-yl)phenyl) acrylamide] it is “A (GI50 < 50 nM)”.
The result for `C=CC(=O)Nc1cc(Nc2cc(N3OCC[C@@H]3c3ccc(F)c(F)c3F)ncn2)c(OC)cc1N1CCC(N2C[C@H]3C[C@@H]2CO3)CC1` [compound 575, N-(2-(4-((1R,4R)-2-oxa-5-azabicyclo [2.2.1]heptane-5-yl)piperidine-1-yl)-4-methoxy-5-((6-((R)-3-(2,3,4-trifluorophenyl)isoxazolidine-2-yl)pyrimidine-4-yl)amino)phenyl)acrylamide] reads “A (GI50 < 50 nM)”; that for `C=CC(=O)Nc1cc(Nc2cc(N3OCC[C@@H]3c3ccc(Cl)c(F)c3)ncn2)c(OC)cc1N1CCN(C)CC1` [compound 795, N-(5-((6-((R)-3-(4-chloro-3-fluorophenyl)isoxazolidine-2-yl)pyrimidine-4-yl)amino)-4-methoxy-2-(4-methylpiperazine-1-yl)phenyl)acrylamide], “B (50 nM ≤ GI50 < 500 nM)”; that for `C=CC(=O)Nc1cc(Nc2cc(N3OCC[C@@H]3c3ccc(F)c(Cl)c3)ncn2)c(OC)cc1N1C[C@H]2CCN(C)[C@H]2C1` [compound 317, N-(5-((6-((R)-3-(3-chloro-4-fluorophenyl)isoxazolidine-2-yl)pyrimidine-4-yl)amino)-4-methoxy-2-((3aR, 6aR)-1-methylhexahydropyrrolo [3,4-b]pyrrole-5(1H)-yl)phenyl)acrylamide], “A (GI50 < 50 nM)”.
With `C=CC(=O)Nc1cc(Nc2cc(N3OCC[C@@H]3c3cccc(Cl)c3Cl)ncn2)c(OC)cc1N1CCC(N2CC[C@@H](N(C)C)C2)CC1` [compound 610, N-(5-((6-((R)-3-(2,3-dichlorophenyl)isoxazolidine-2-yl)pyrimidine-4-yl)amino)-2-(4-((R)-3-(dimethylamino)pyrolidine-1-yl)piperidine-1-yl)-4-methoxyphenyl) acrylamide], the “Ba/F3 (NPH) Activity” value was “B (50 nM ≤ GI50 < 500 nM)”.
